Target: T1, Human Polθ polymerase domain (aa1820-2590) (Homo sapiens, UniProt O75417)
T1 construct: Human Polθ polymerase domain (aa1820-2590) was expressed in E. coli; made in house; host or cells: E. coli
T1 sequence (O75417 1820-2590): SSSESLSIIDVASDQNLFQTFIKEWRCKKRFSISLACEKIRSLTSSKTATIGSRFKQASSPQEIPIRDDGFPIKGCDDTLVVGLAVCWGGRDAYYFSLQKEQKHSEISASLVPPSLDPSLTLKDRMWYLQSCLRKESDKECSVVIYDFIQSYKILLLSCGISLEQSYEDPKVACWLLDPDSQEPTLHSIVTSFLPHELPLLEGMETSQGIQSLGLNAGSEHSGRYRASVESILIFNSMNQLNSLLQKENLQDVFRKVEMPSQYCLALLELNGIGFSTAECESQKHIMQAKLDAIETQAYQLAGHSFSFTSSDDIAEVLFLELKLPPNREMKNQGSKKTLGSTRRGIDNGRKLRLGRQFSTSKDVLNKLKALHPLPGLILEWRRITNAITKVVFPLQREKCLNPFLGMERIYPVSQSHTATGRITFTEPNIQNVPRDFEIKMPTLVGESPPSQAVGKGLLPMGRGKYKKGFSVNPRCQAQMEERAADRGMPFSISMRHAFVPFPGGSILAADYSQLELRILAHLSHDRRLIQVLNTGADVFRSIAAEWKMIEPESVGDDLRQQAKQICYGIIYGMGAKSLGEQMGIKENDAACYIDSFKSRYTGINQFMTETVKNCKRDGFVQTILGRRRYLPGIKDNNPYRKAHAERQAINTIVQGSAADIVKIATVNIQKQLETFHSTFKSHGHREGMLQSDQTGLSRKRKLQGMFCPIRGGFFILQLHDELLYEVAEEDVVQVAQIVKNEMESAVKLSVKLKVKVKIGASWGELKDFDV
Test: Polθ Polymerase Domain Kinact/KI Assay (PicoGreen)
Assay type: biochemical
Conditions: 0.8 nM Polθ, 100 nM DNA substrate, kobs vs [I] fit for 2-step covalent inhibitor
In short: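 Covalent inhibitors were tested against E. coli-expressed enzyme (0.8 nM final) with 100 nM annealed DNA substrate and […] in Tris pH 7.5 buffer, 1% DMSO. Reactions were EDTA-quenched over a 0–60 min time course and product DNA detected by PicoGreen fluorescence.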

| Kinact/Kl [M⁻¹ s⁻¹] | SMILES |
| --- | --- |
| 260000 | Cc1cc(C(F)(F)F)cc(N2C(=O)C[C@@H]3CN(Cc4ccc(CNC(=O)/C=C/CN(C)C)cc4)c4c(C)cccc4N(C)C(=O)[C@H]32)n1 [Example 177, (E)-N-(4-(((3aR, 11aS)-6,10-dimeth-yl-1-(6-methyl-4-(trifluoromethyl)-pyridin-2-yl)-2,11-dioxo-1,2,3,3a,4, 10,11,11a-octa-hydro-5H-benzo[b]pyrrolo[2,3-f][1,4]diazocin-5-yl)-methyl)benzyl)-4-(dimethylamino)-but-2-enamide] |
| 1.6e+06 | Cc1cc(C(F)(F)F)cc(N2C(=O)C[C@@H]3CN(CC45CC(NC(=O)/C=C/CN(C)C)(C4)C5)c4c(C)cccc4N(C)C(=O)[C@H]32)n1 [Example 178, (E)-N-(3-(((3aR, 11aS)-6,10-dimeth-yl-1-(6-methyl-4-(trifluoromethyl)-pyridin-2-yl)-2,11-dioxo-1,2,3,3a,4, 10,11,11a-octa-hydro-5H-benzo [b]pyrrolo[2,3-f] [1,4]diazocin-5-yl)methyl)bicyclo [1.1.1]pentan-1-yl)-4-(dimethyl-amino)but-2-enamide] |
| 670000 | Cc1cc(C(F)(F)F)cc(N2C(=O)C[C@@H]3CN(CC45CC(CNC(=O)/C=C/CN(C)C)(C4)C5)c4c(C)cccc4N(C)C(=O)[C@H]32)n1 [Example 179, (E)-N-((3-(((3aR, 11aS)-6,10-dimeth-yl-1-(6-methyl-4-(trifluoromethyl)-pyridin-2-yl)-2,11-dioxo-1,2,3,3a,4, 10,11,11a-octa-hydro-5H-benzo [b]pyrrolo[2,3-f] [1,4]diazocin-5-yl)methyl)bicyclo [1.1.1]pentan-1-yl)methyl)-4-(dimethylamino)-but-2-enamide] |
| 2.72e+06 | C=C(CN(C)C)C(=O)N1CC[C@@H](COCCN2C[C@H]3CC(=O)N(c4cc(C(F)(F)F)cc(C)n4)[C@@H]3C(=O)N(C)c3cccc(C)c32)C1 [Example 180, (3aR,11aS)-5-(2-(((R)-1-(2-((dimeth-ylamino)methyl)-acryloyl)pyrrolidin-3-yl)methoxy)eth-yl)-6,10-dimethyl-1-(6-methyl-4-(trifluoromethyl)-pyridin-2-yl)-1,3a,4,5,10,11a-hexahydro-2H-benzo[b]pyrrolo [2,3-f][1,4]diazo-cine-2,11(3H)-dione] |
| 2.26e+06 | C=C(CN(C)C)C(=O)N1CC[C@H](COCCN2C[C@H]3CC(=O)N(c4cc(C(F)(F)F)cc(C)n4)[C@@H]3C(=O)N(C)c3cccc(C)c32)C1 [Example 181, (3aR,11aS)-5-(2-(((S)-1-(2-((dimeth-ylamino)methyl)-acryloyl)pyrrolidin-3-yl)methoxy)eth-yl)-6,10-dimethyl-1-(6-methyl-4-(trifluoromethyl)-pyridin-2-yl)-1,3a,4,5,10,11a-hexahydro-2H-benzo[b]pyrrolo [2,3-f][1,4]diazo-cine-2,11(3H)-dione] |
| 5.23e+06 | C=C(CN(C)C)C(=O)N1CC(COCCN2C[C@H]3CC(=O)N(c4cc(C(F)(F)F)cc(C)n4)[C@@H]3C(=O)N(C)c3cccc(C)c32)C1 [Example 182, (3aR,11aS)-5-(2-((1-(2-((dimethyl-amino)methyl)-acryloyl)azetidin-3-yl)methoxy)eth-yl)-6,10-dimethyl-1-(6-methyl-4-(trifluoromethyl)-pyridin-2-yl)-1,3a,4,5,10,11a-hexahydro-2H-benzo[b]pyrrolo [2,3-f][1,4]diazo-cine-2,11(3H)-dione] |
| 3.8e+06 | C=C(CN(C)C)C(=O)N1CC(CCCCN2C[C@H]3CC(=O)N(c4cc(C(F)(F)F)cc(C)n4)[C@@H]3C(=O)N(C)c3cccc(C)c32)C1 [Example 183, (3aR,11aS)-5-(4-(1-(2-((dimethyl-amino)methyl)-acryloyl)azetidin-3-yl)butyl)-6,10-dimethyl-1-(6-methyl-4-(trifluoro-methyl)pyridin-2-yl)-1,3a,4,5,10,11a-hexahydro-2H-benzo[b]pyrrolo [2,3-f][1,4]diazo-cine-2,11(3H)-dione] |

The next lines start with the molecule.

| SMILES | Kinact/Kl [M⁻¹ s⁻¹] |
| --- | --- |
| C=C(C)C(=O)N1CC(OCCCN2C[C@H]3CC(=O)N(c4cc(C(F)(F)F)cc(C)n4)[C@@H]3C(=O)N(C)c3cccc(Cl)c32)C1 [Example 165, (3aR,11aS)-6-chloro-5-(3-((1-methacryloylazetidin-3-yl)oxy)propyl)-10-methyl-1-(6-methyl-4-(trifluoromethyl)pyridin-2-yl)-1,3a,4,5,10,11a-hexahydro-2H-benzo[b]pyrrolo[2,3-f][1,4]diazocine-2,11(3H)-dione] | 1.18e+06 |
| C=C(CN(CC)CC)C(=O)N1CC(OCCCN2C[C@H]3CC(=O)N(c4cc(C(F)(F)F)cc(C)n4)[C@@H]3C(=O)N(C)c3cccc(Cl)c32)C1 [Example 166, (3aR, 11aS)-6-chloro-5-(3-((1-(2-((diethylamino)methyl)acryloyl)azetidin-3-yl)oxy)propyl)-10-methyl-1-(6-methyl-4-(trifluoromethyl)pyridin-2-yl)-1,3a,4,5,10,11a-hexahydro-2H-benzo[b]pyrrolo[2,3-f][1,4]diazocine-2,11(3H)-dione] | 3.41e+06 |
| C=C(CN1CCN(C)CC1)C(=O)N1CC(CCCCN2C[C@H]3CC(=O)N(c4cc(C(F)(F)F)cc(C)n4)[C@@H]3C(=O)N(C)c3cccc(Cl)c32)C1 [Example 167, (3aR,11aS)-6-chloro-10-methyl-1-(6-methyl-4-(trifluoromethyl)pyridin-2-yl)-5-(4-(1-(2-((4-methylpiperazin-1-yl)methyl)acryloyl)azetidin-3-yl)butyl)-1,3a,4,5,10,11a-hexahydro-2H-benzo[b]pyrrolo[2,3-f][1,4]diazocine-2,11(3H)-dione] | 4.66e+06 |
| C=C(CO)C(=O)N1CCC(CCCN2C[C@H]3CC(=O)N(c4cc(C(F)(F)F)cc(C)n4)[C@@H]3C(=O)N(C)c3cccc(Cl)c32)CC1 [Example 168, (3aR,11aS)-6-chloro-5-(3-(1-(2-(hydroxymethyl)acryloyl)piperidin-4-yl)propyl)-10-methyl-1-(6-methyl-4-(trifluoromethyl)pyridin-2-yl)-1,3a,4,5,10,11a-hexahydro-2H-benzo[b]pyrrolo[2,3-f][1,4]diazocine-2,11(3H)-dione] | 1.97e+06 |
| Cc1cc(C(F)(F)F)cc(N2C(=O)C[C@@H]3CN(CCCOC4CN(C(=O)/C=C/CN(C)C)C4)c4c(C)cccc4N(C)C(=O)[C@H]32)n1 [Example 169, (3aR,11aS)-5-(3-((1-((E)-4-(dimethylamino)but-2-enoyl)azetidin-3-yl)oxy)propyl)-6,10-dimethyl-1-(6-methyl-4-(trifluoromethyl)pyridin-2-yl)-1,3a,4,5,10,11a-hexahydro-2H-benzo[b]pyrrolo[2,3-f][1,4]diazocine-2,11(3H)-dione] | 2.69e+06 |
| C=CC(=O)N1CCn2nc(CN3C[C@H]4CC(=O)N(c5cc(C(F)(F)F)cc(C)n5)[C@@H]4C(=O)N(C)c4cccc(C)c43)cc2C1 [Example 173, (3aR,11aS)-5-((5-acryloyl-4,5,6,7-tetrahydropyrazolo [1,5-a]pyrazin-2-yl)methyl)-6,10-dimethyl-1-(6-methyl-4-(trifluoro-methyl)pyridin-2-yl)-1,3a,4,5,10, 11a-hexahydro-2H-benzo[b]pyrrolo [2,3-f][1,4]diazo-cine-2,11(3H)-dione] | 2.92e+06 |
| C=CC(=O)NC12CC(CN3C[C@H]4CC(=O)N(c5cc(C(F)(F)F)cc(C)n5)[C@@H]4C(=O)N(C)c4cccc(C)c43)(C1)C2 [Example 174, N-(3-(((3aR,11aS)-6,10-dimethyl-1-(6-methyl-4-(tri-fluoromethyl)pyr-idin-2-yl)-2,11-dioxo-1,2,3,3a,4, 10,11,11a-octa-hydro-5H-benzo [b]pyrrolo[2,3-f] [1,4]diazocin-5-yl)methyl)bicyclo [1.1.1]pentan-1-yl)acrylamide] | 1.08e+06 |
| C=CC(=O)NCC12CC(CN3C[C@H]4CC(=O)N(c5cc(C(F)(F)F)cc(C)n5)[C@@H]4C(=O)N(C)c4cccc(C)c43)(C1)C2 [Example 175, N-((3-(((3aR,11aS)-6,10-dimethyl-1-(6-methyl-4-(tri-fluoromethyl)pyr-idin-2-yl)-2,11-dioxo-1,2,3,3a,4, 10,11,11a-octa-hydro-5H-benzo [b]pyrrolo[2,3-f] [1,4]diazocin-5-yl)methyl)bicyclo [1.1.1]pentan-1-yl)-methyl)acrylamide] | 370000 |
| Cc1cc(C(F)(F)F)cc(N2C(=O)C[C@@H]3CN(Cc4ccc5c(c4)CN(C(=O)/C=C/CN(C)C)C5)c4c(C)cccc4N(C)C(=O)[C@H]32)n1 [Example 176, (3aR,11aS)-5-((2-((E)-4-(dimethyl-amino)but-2-enoyl)isoindolin-5-yl)methyl)-6,10-dimethyl-1-(6-methyl-4-(tri-fluoromethyl)pyr-idin-2-yl)-1,3a,4,5,10,11a-hexa-hydro-2H-benzo [b]pyrrolo[2,3-f] [1,4]diazocine-2,11(3H)-dione] | 1.37e+06 |
